# Like-named read-outs stand apart in the source and are kept apart here.
# Key:
# ascites Sarcoma 180 = assay: Antitumor activity and toxicity on ascites Sarcoma 180 in CD 1 mice; type: in vivo; details: for % LTS: 60 days; for LTS (Long Term Survivors after 60 days): survivors/total; for Toxic Deaths: deaths/total
# Description: (§1) The antitumor activity of the compounds of the invention was tested on ascites Sarcoma 180.
# (§2) Three month old CD 1 mice were used. Sarcoma 180 ascites cells were inoculated intraperitoneally (10^6 cells/mouse). For use in these tests, the compounds were dissolved in distilled water or in 5% ethyl alcohol in distilled water, then diluted with Ringers solution and administered i.p. 1 day after the tumor implant (10 ml./kg. of body weight).
# (§3) The toxicity of the test compounds was evaluated by macroscopic autoptic examination mainly in terms of reduction in spleen size. The comparison of the effectiveness of the test compounds is based on the maximum increase in median survival time, as compared to untreated controls, over the dose range used. The number of Long Term Survivors (LTS) refers to tumor-free mice at the end of the experiment (60 days). Solid Sarcoma 180 was implanted subcutaneously by trocar in the flank of CD 1 mice according to standard methods. The mice were treated i.v. for 5 consecutive days, starting 1 day after the tumor implant. On the 11th day the tumor volume was measured by means of a caliper and evaluated according to the formula (a^2 × b)/2, a and b being the minimum and the maximum diameters respectively.
# [1] = as above; type: in vivo; details: mouse, in vivo, ip, read-out: % Toxic Deaths
# Description: as §1, §2, §3
# [2] = system: Moloney Sarcoma Virus (MSV); assay: Inhibition of MSV-M foci formation in mouse embryo fibroblasts; type: cell-based; details: Fibroblast, 120 h; for IC50: read-out: MSV-M foci ID 50 (Inhibiting Dose 50%); for activity at 0.1 µg/mL: dose 0.1 μg/ml; for activity at 0.4 µg/mL: dose 0.4 μg/ml
# Description: (§4) Mouse embryo fibroblasts (MEF) were plated on 35 mm. Falcon plastic dishes and infected 24 hours later with Moloney Sarcoma Virus (MSV) in the presence of DEAE-dextran (25 μg./ml.). The samples were then treated for 3 days with different concentrations of the compounds of the invention. The number of foci of transformed cells was microscopically determined 5 days after the infection. Uninfected MEF were similarly treated and at the end of the experiment, the cells were counted in an haemocytometer. In all the experiments, the cells were incubated in a 5% CO2 incubator at 37° C.
# (§5) For use in these tests the compounds were dissolved in distilled water or in 5% ethyl alcohol in distilled water and then diluted in culture medium.
# The results of these tests are reported in Table I in terms of ID50 values (Inhibiting Dose 50%), calculated on dose-effects lines.
# Mouse Embryo Fibroblasts = assay: Proliferation of uninfected mouse embryo fibroblasts (MEF); type: cell-based; details: Mus musculus, Fibroblast, 72 h, read-out: MEF No. of cells; for activity at 0.1 µg/mL: dose 0.1 μg/ml; for activity at 0.4 µg/mL: dose 0.4 μg/ml
# Description: as §4, §5
# [3] = as above; type: cell-based; details: mouse, mouse embryo fibroblasts; calculated on dose-effects lines; uninfected MEF, 3 days treatment; read-out: MEF proliferation ID 50 (Inhibiting Dose 50%)
# Description: as §4, §5
# [4] = 0.2 mg./kg. i.p. 1 day after tumor implant
# [5] = 1 mg./kg. i.p. 1 day after tumor implant
# [6] = 5 mg./kg. i.p. 1 day after tumor implant
# [7] = 12.5 mg./kg. i.p. 1 day after tumor implant
# [8] = 25 mg./kg. i.p. 1 day after tumor implant
# [9] = 50 mg./kg. i.p. 1 day after tumor implant
# [10] = calculated on dose-effects lines, 3 days treatment
# [11] = dose 0.0062 μg/ml, 3 days treatment, foci counted 5 days after infection, read-out: MSV-M No. of foci
# [12] = dose 0.0250 μg/ml, 3 days treatment, foci counted 5 days after infection, read-out: MSV-M No. of foci
# [13] = 3 days treatment, foci counted 5 days after infection, read-out: MSV-M No. of foci
# [14] = dose 0.0062 μg/ml, uninfected MEF, 3 days treatment
# [15] = dose 0.0250 μg/ml, uninfected MEF, 3 days treatment
# [16] = uninfected MEF, 3 days treatment
# [17] = 10 mg./kg. i.p. 1 day after tumor implant
SMILES,"T/C (median survival time, % over untreated controls) (ascites Sarcoma 180; [4])",% LTS (ascites Sarcoma 180; [4]),LTS (Long Term Survivors after 60 days) (ascites Sarcoma 180; [4]),Toxic Deaths (ascites Sarcoma 180; 0.2 mg./kg. i.p.),"T/C (median survival time, % over untreated controls) (ascites Sarcoma 180; [5])",% LTS (ascites Sarcoma 180; [5]),LTS (Long Term Survivors after 60 days) (ascites Sarcoma 180; [5]),Toxic Deaths (ascites Sarcoma 180; 1 mg./kg. i.p.),"T/C (median survival time, % over untreated controls) (ascites Sarcoma 180; [6])",% LTS (ascites Sarcoma 180; [6]),LTS (Long Term Survivors after 60 days) (ascites Sarcoma 180; [6]),Toxic Deaths (ascites Sarcoma 180; 5 mg./kg. i.p.),"T/C (median survival time, % over untreated controls) (ascites Sarcoma 180; [7])",% LTS (ascites Sarcoma 180; [7]),LTS (Long Term Survivors after 60 days) (ascites Sarcoma 180; [7]),Toxic Deaths (ascites Sarcoma 180; 12.5 mg./kg. i.p.),mortality ([1]; 0.2 mg./kg. i.p.),mortality ([1]; 1 mg./kg. i.p.),mortality ([1]; 5 mg./kg. i.p.),IC50 at 72 h [3],further results
COc1cccc2c1C(=O)c1c(O)c3c(c(O)c1C2=O)C[C@@](O)(C(=O)CN1CCN(CCO)CC1)C[C@@H]3O[C@H]1C[C@H](N)[C@H](O)[C@H](C)O1 [14-[N-(N'-hydroxyethyl)piperazino]-daunomycin],103%,0%,0/10,0/10,103%,0%,0/10,0/10,103%,10%,1/10,0/10,152%,0%,0/10,0/10,0%,0%,0%,0.08 µg/mL,"T/C (median survival time, % over untreated controls) (ascites Sarcoma 180; [8]): 222%; % LTS (ascites Sarcoma 180; [8]): 10%; LTS (Long Term Survivors after 60 days) (ascites Sarcoma 180; [8]): 1/10; Toxic Deaths (ascites Sarcoma 180; 25 mg./kg. i.p.): 0/10; T/C (median survival time, % over untreated controls) (ascites Sarcoma 180; [9]): 152%; % LTS (ascites Sarcoma 180; [9]): 0%; LTS (Long Term Survivors after 60 days) (ascites Sarcoma 180; [9]): 0/10; Toxic Deaths (ascites Sarcoma 180; 50 mg./kg. i.p.): 3/10; mortality ([1]; 12.5 mg./kg. i.p.): 0%; mortality ([1]; 25 mg./kg. i.p.): 0%; mortality ([1]; 50 mg./kg. i.p.): 30%; IC50 [2, 10]: 0.045 µg/mL; activity at 0.0062 µg/mL [2, 11]: 71%; activity at 0.025 µg/mL [2, 12]: 64%; activity at 0.1 µg/mL [2, 13]: 43%; activity at 0.4 µg/mL [2, 13]: 2%; activity at 0.0062 µg/mL (Mouse Embryo Fibroblasts; [14]): 67%; activity at 0.025 µg/mL (Mouse Embryo Fibroblasts; [15]): 64%; activity at 0.1 µg/mL (Mouse Embryo Fibroblasts; [16]): 52%; activity at 0.4 µg/mL (Mouse Embryo Fibroblasts; [16]): 31%"
COc1cccc2c1C(=O)c1c(O)c3c(c(O)c1C2=O)C[C@@](O)(C(=O)CN1CCCCC1)C[C@@H]3O[C@H]1C[C@H](N)[C@H](O)[C@H](C)O1 [14-(N-piperidino)-daunomycin],103%,0%,0/10,0/10,100%,0%,0/10,0/10,140%,20%,2/10,0/10,200%,20%,2/10,0/10,0%,0%,0%,0.1 µg/mL,"T/C (median survival time, % over untreated controls) (ascites Sarcoma 180; [8]): 218%; % LTS (ascites Sarcoma 180; [8]): 20%; LTS (Long Term Survivors after 60 days) (ascites Sarcoma 180; [8]): 2/10; Toxic Deaths (ascites Sarcoma 180; 25 mg./kg. i.p.): 0/10; T/C (median survival time, % over untreated controls) (ascites Sarcoma 180; [9]): 144%; % LTS (ascites Sarcoma 180; [9]): 20%; LTS (Long Term Survivors after 60 days) (ascites Sarcoma 180; [9]): 2/10; Toxic Deaths (ascites Sarcoma 180; 50 mg./kg. i.p.): 4/10; mortality ([1]; 12.5 mg./kg. i.p.): 0%; mortality ([1]; 25 mg./kg. i.p.): 0%; mortality ([1]; 50 mg./kg. i.p.): 40%; IC50 [2, 10]: 0.08 µg/mL; activity at 0.0062 µg/mL [2, 11]: 100%; activity at 0.025 µg/mL [2, 12]: 89%; activity at 0.1 µg/mL [2, 13]: 42%; activity at 0.4 µg/mL [2, 13]: 0%; activity at 0.0062 µg/mL (Mouse Embryo Fibroblasts; [14]): 87%; activity at 0.025 µg/mL (Mouse Embryo Fibroblasts; [15]): 71%; activity at 0.1 µg/mL (Mouse Embryo Fibroblasts; [16]): 58%; activity at 0.4 µg/mL (Mouse Embryo Fibroblasts; [16]): 24%"
"COc1cccc2c1C(=O)c1c(O)c3c(c(O)c1C2=O)C[C@@](O)(C(=O)CO)C[C@@H]3O[C@H]1C[C@H](N)[C@H](O)[C@H](C)O1 [Adriamycin, reference compound]",,16%,5/30,0/30,177%,45%,13/29,0/29,200%,19%,9/47,5/47,,,,,0%,0%,10%,0.01 µg/mL,% LTS (ascites Sarcoma 180; [17]): 0%; LTS (Long Term Survivors after 60 days) (ascites Sarcoma 180; [17]): 0/10; Toxic Deaths (ascites Sarcoma 180; 10 mg./kg. i.p.): 2/10; mortality ([1]; 10 mg./kg. i.p.): 20%; activity at 0.0062 µg/mL ([2]; read-out: MSV-M No. of foci): 46%; activity at 0.0125 µg/mL ([2]; read-out: MSV-M No. of foci): 24%; activity at 0.025 µg/mL ([2]; read-out: MSV-M No. of foci): 0%; IC50 [2]: 0.005 µg/mL; activity at 0.0062 µg/mL (Mouse Embryo Fibroblasts): 61%; activity at 0.0125 µg/mL (Mouse Embryo Fibroblasts): 42%; activity at 0.025 µg/mL (Mouse Embryo Fibroblasts): 37%

# From patent publication US4024224A, “14-Aminodaunomycins, their preparation and use” (priority 1974, dated 1977)
